Each molecule was assayed against T1, hTRPM8 (Homo sapiens, UniProt Q7Z2W7) (assay: Assay on TRPM8 modulators: calcium imaging (Fluo-4, Flexstation) in HEK293 cell line stably expressing hTRPM8). Conditions: HEK293 cells stably expressing hTRPM8; calcium influx, Fluo-4, Flexstation 3; sigmoidal dose-response fit.
T1 construct: expressed in transfected cells
Assay type: cell-based
Protocol: A HEK293 cell line stably expressing hTRPM8 was generated according to Klein of at, (Chem. Senses 36: […], 2011) and receptor activation was monitored by calcium imaging in a Flexstation. For Ca-imaging assays of TRPM8 channel activation, cells were seeded on day 0 at a density of 12000 cells per well in Dulbecco's modified Eagle medium (DMEM) containing 9% foetal bovine serum in black, clear bottom 96-well plates that had been coated with 0.001% polyethyleneimine (molecular weight=60 000, Acros Organics). On day 2, agonists were evaluated via calcium imaging using Fluo-4. Briefly, growth medium was discarded, and the cells were incubated in the dark for 1 h at 37° C. in 50 μL loading buffer consisting of 2.7 μM Fluo-4 AM (Invitrogen) and […] probenecid (Sigma-Aldrich) in DMEM (without serum). After incubation, the plates were washed five times with 100 μL of assay buffer (in mM: 130 NaCl, 5 KCl, 10 HEPES, 2 CaCl2, and 10 glucose, pH7.4.) and further incubated in the dark at room temperature for 30 min. The cells were then washed five times with 100 μL assay buffer and then calcium influx to serial dilutions of inventive compounds were measured in a Flexstation 3 (Molecular Devices). Receptor activation was initiated following addition of 20 μl of a 10-fold concentrated ligand stock solution, which is also prepared in assay buffer. Fluorescence was continuously monitored for 15 seconds prior to ligand addition and for 105 seconds after ligand addition, for a total of 120 seconds. Maximal receptor activation in relation to solvent control and relative to 31.6 μM menthol is determined. Data from serial dilutions were processed with a KNIME workflow to fit a sigmoidal dose-response curve and to extrapolate […].

T1 sequence (Q7Z2W7 whole entry): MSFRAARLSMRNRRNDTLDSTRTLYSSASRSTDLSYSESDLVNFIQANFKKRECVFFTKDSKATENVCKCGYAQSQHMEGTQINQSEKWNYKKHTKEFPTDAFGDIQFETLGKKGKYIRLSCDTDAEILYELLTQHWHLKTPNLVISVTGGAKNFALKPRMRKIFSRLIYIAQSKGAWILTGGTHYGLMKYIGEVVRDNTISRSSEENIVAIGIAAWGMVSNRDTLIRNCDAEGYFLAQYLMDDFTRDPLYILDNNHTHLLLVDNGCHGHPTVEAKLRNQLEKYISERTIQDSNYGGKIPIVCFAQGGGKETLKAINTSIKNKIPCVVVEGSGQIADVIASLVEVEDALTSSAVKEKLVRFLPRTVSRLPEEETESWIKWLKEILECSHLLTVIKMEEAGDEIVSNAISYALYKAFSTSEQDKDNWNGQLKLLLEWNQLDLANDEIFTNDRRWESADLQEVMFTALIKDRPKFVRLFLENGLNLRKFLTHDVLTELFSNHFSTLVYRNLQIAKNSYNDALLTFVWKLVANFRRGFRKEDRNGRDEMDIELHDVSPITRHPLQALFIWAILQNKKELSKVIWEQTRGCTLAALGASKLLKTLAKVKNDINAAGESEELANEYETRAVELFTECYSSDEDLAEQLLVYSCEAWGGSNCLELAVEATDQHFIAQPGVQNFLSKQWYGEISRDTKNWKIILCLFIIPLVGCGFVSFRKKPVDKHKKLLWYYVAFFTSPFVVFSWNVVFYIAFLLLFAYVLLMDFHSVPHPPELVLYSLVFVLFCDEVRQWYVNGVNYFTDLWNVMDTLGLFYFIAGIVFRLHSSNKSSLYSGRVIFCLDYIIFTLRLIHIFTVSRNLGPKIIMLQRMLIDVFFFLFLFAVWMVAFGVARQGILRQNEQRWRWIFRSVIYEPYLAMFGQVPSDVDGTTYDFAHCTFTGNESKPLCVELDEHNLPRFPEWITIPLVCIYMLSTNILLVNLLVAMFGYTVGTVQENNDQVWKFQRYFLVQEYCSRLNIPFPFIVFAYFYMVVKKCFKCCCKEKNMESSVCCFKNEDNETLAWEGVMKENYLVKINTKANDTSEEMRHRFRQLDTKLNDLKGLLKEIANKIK

SMILES	EC50
COc1nscc1-c1cnc(C2CCCCN2C(=O)C(C)SC)[nH]1 (stereo not shown) [Compound 67, 1-(2-(5-(3-methoxyisothiazol-4-yl)-1H-imidazol-2-yl)piperidin-1-yl)-2-(methylthio)propan-1-one]	1000 to 35000 nM
COc1cccc(-c2cnc(C3CCCCN3C(=O)C(C)SC)[nH]2)c1 (stereo not shown) [Compound 68, 1-(2-(5-(3-methoxyphenyl)-1H-imidazol-2-yl)piperidin-1-yl)-2-(methylthio)propan-1-one]	50 to 300 nM
CNCc1ccc(-c2cnc(C3CCCCN3C(=O)C(C)SC)[nH]2)cc1 (stereo not shown) [Compound 69, 1-(2-(5-(4-((methylamino)methyl)phenyl)-1H-imidazol-2-yl)piperidin-1-yl)-2-(methylthio)propan-1-one]	1000 to 35000 nM
COCCc1ccc(-c2cnc(C3CCCCN3C(=O)C(C)SC)[nH]2)cc1 (stereo not shown) [Compound 70, 1-(2-(5-(4-(2-methoxyethyl)phenyl)-1H-imidazol-2-yl)piperidin-1-yl)-2-(methylthio)propan-1-one]	50 to 300 nM
CSC(C)C(=O)N1CCCCC1c1ncc(-c2ccc(CN)cc2)[nH]1 (stereo not shown) [Compound 71, 1-(2-(5-(4-(aminomethyl)phenyl)-1H-imidazol-2-yl)piperidin-1-yl)-2-(methylthio)propan-1-one]	< 50 nM
CSC(C)C(=O)N1CCCCC1c1ncc(-c2ccc(N(C)C)cc2)[nH]1 (stereo not shown) [Compound 72, 1-(2-(5-(4-(dimethylamino)phenyl)-1H-imidazol-2-yl)piperidin-1-yl)-2-(methylthio)propan-1-one]	50 to 300 nM
CSC(C)C(=O)N1CCCCC1c1ncc(-c2ccc(CO)cc2)[nH]1 (stereo not shown) [Compound 73, 1-(2-(5-(4-(hydroxymethyl)phenyl)-1H-imidazol-2-yl)piperidin-1-yl)-2-(methylthio)propan-1-one]	300 to 1000 nM
CSC(C)C(=O)N1CCCCC1c1ncc(-c2ccc(C(C)=O)cc2)[nH]1 (stereo not shown) [Compound 74, 1-(2-(5-(4-acetylphenyl)-1H-imidazol-2-yl)piperidin-1-yl)-2-(methylthio)propan--one]	< 50 nM
CSC(C)C(=O)N1CCCCC1c1ncc(-c2ccc(N)cc2)[nH]1 (stereo not shown) [Compound 75, 1-(2-(5-(4-aminophenyl)-1H-imidazol-2-yl)piperidin-1-yl)-2-(methylthio)propan-1-one]	< 50 nM
CSC(C)C(=O)N1CCCCC1c1ncc(-c2ccc(Cl)c(F)c2)[nH]1 (stereo not shown) [Compound 76, 1-(2-(5-(4-chloro-3-fluorophenyl)-1H-imidazol-2-yl)piperidin-1-yl)-2-(methylthio)propan-1-one]	< 50 nM
CSC(C)C(=O)N1CCCCC1c1ncc(-c2ccc(Cl)cc2)[nH]1 (stereo not shown) [Compound 77, 1-(2-(5-(4-chlorophenyl)-1H-imidazol-2-yl)piperidin-1-yl)-2-(methyltbio)propan-1-one]	< 50 nM
CCc1ccc(-c2cnc(C3CCCCN3C(=O)C(C)SC)[nH]2)cc1 (stereo not shown) [Compound 78, 1-(2-(5-(4-ethylphenyl)-1H-imidazol-2-yl)piperidin-1-yl)-2-(methylthio)propan-1-one]	< 50 nM
CSC(C)C(=O)N1CCCCC1c1nnc(-c2ccc(F)cc2)[nH]1 (stereo not shown) [Compound 79, 1-(2-(5-(4-fluorophenyl)-4H-1,2,4-triazol-3-yl)piperidin-1-yl)-2-(methylthio)propan-1-one]	< 50 nM
COc1ccc(-c2cnc(C3CCCCN3C(=O)C(C)SC)[nH]2)c(C)c1 (stereo not shown) [Compound 80, 1-(2-(5-(4-methoxy-2-methylphenyl)-1H-imidazol-2-yl)piperidin-1-yl)-2-(methylthio)propan-1-one]	< 50 nM
COc1ccc(-c2cnc(C3CCCCN3C(=O)C(C)SC)[nH]2)cc1 (stereo not shown) [Compound 81, 1-(2-(5-(4-methoxyphenyl)-1H-imidazol-2-yl)piperidin-1-yl)-2-(methylthio)propan-1-one]	< 50 nM
CSc1cc(C)c(-c2cnc(C3CCCCN3C(=O)C(C)SC)[nH]2)cn1 (stereo not shown) [Compound 82, 1-(2-(5-(4-methyl-6-(methylthio)pyridin-3-yl)-1H-imidazol-2-yl)piperidin-1-yl)-2-(methylthio)propan-1-one]	300 to 1000 nM

SMILES	EC50
COCc1cc(-c2cnc(C3CCCCN3C(=O)C(C)SC)[nH]2)cs1 (stereo not shown) [Compound 83, 1-(2-(5-(5-(methoxymethyl)thiophen-3-yl)-1H-imidazol-2-yl)piperidin-1-yl)-2-(methylthio)propan-1-one]	50 to 300 nM
COc1ccc(-c2cnc(C3CCCCN3C(=O)C(C)SC)[nH]2)cn1 (stereo not shown) [Compound 84, 1-(2-(5-(6-methoxypyridin-3-yl)-1H-imidazol-2-yl)piperidin-1-yl)-2-(methylthio)propan-1-one]	50 to 300 nM
CSC(C)C(=O)N1CCCCC1c1ncc(-c2ccc3c(c2)OCO3)[nH]1 (stereo not shown) [Compound 85, 1-(2-(5-(benzo[d][1,3]dioxol-5-yl)-1H-imidazol-2-yl)piperidin-1-yl)-2-(methylthio)propan-1-one]	< 50 nM
CCC(=O)N1CCCCC1c1ncc(-c2ccc(C)cc2)[nH]1 (stereo not shown) [Compound 86, 1-(2-(5-(p-tolyl)-1H-imidazol-2-yl)piperidin-1-yl)propan-1-one]	50 to 300 nM
CSC(C)C(=O)N1CCCCC1c1ncc(Cc2ccccc2)[nH]1 (stereo not shown) [Compound 87, 1-(2-(5-benzyl-1H-imidazol-2-yl)piperidin-1-yl)-2-(methylthio)propan-1-one]	1000 to 35000 nM
CSC(C)C(=O)N1CCCCC1c1ncc(Br)[nH]1 (stereo not shown) [Compound 88, 1-(2-(5-bromo-1H-imidazol-2-yl)piperidin-1-yl)-2-(methylthio)propan-1-one]	300 to 1000 nM
CSC(C)C(=O)N1CCCCC1c1ncc(-c2ccccc2C#N)[nH]1 (stereo not shown) [Compound 89, 2-(2-(1-(2-(methylthio)propanoyl)piperidin-2-yl)-1H-imidazol-5-yl)benzonitrile]	300 to 1000 nM
Cc1ccc(C(C)C(=O)N2CCCCC2c2nc(-c3ccccc3)c[nH]2)o1 (stereo not shown) [Compound 91, 2-(5-methylfuran-2-yl)-1-(2-(4-phenyl-1H-imidazol-2-yl)piperidin-1-yl)propan-1-one]	50 to 300 nM
C=CCSC(C)C(=O)N1CCCCC1c1ncc(-c2ccc(C)cc2)[nH]1 (stereo not shown) [Compound 92, 2-(allylthio)-1-(2-(5-(p-tolyl)-1H-imidazol-2-yl)piperidin-1-yl)propan-1-one]	< 50 nM
CCC(C(=O)N1CCCCC1c1nc(-c2ccccc2)c[nH]1)N(C)C (stereo not shown) [Compound 93, 2-(dimethylamino)-1-(2-(4-phenyl-1H-imidazol-2-yl)piperidin-1-yl)butan-1-one]	1000 to 35000 nM
C[C@H](C(=O)N1CCCCC1c1nc(-c2ccccc2)c[nH]1)N(C)C (stereo partly drawn) [Compound 94, (2R)-2-(dimethylamino)-1-(2-(4-phenyl-1H-imidazol-2-yl)piperidin-1-yl)propan-1-one]	300 to 1000 nM
O=C(Cc1ccco1)N1CCCCC1c1nc(-c2ccccc2)c[nH]1 (stereo not shown) [Compound 96, 2-(furan-2-yl)-1-(2-(4-phenyl-1H-imidazol-2-yl)piperidin-1-yl)ethan-1-one]	1000 to 35000 nM
CC(C(=O)N1CCCCC1c1nc(-c2ccccc2)c[nH]1)c1ccco1 (stereo not shown) [Compound 97, 2-(furan-2-yl)-1-(2-(4-phenyl-1H-imidazol-2-yl)piperidin-1-yl)propan-1-one]	50 to 300 nM
O=C(Cc1ccoc1)N1CCCCC1c1nc(-c2ccccc2)c[nH]1 (stereo not shown) [Compound 98]	50 to 300 nM
Cc1ccc(-c2cnc(C3CCCCN3C(=O)C(C)c3ccoc3)[nH]2)cc1 (stereo not shown) [Compound 99, 2-(furan-3-yl)-1-(2-(5-(p-tolyl)-1H-imidazol-2-yl)piperidin-1-yl)propan-1-one]	< 50 nM

Source: patent US12528801B2 (Givaudan SA, priority 2019, dated 2026)
